Tests used:
[1] = tested on: Pseudomonas aeruginosa CCM 1961; assay: Screen against bacteria, MIC/IC80; type: cell-based; conditions: PA
[2] = tested on: Klebsiella pneumoniae D 11750/08; assay: Screen against bacteria, MIC/IC80; type: cell-based; conditions: KP
[3] = tested on: Candida krusei E28; assay: In vitro antifungal activity, MIC by microdilution (NCCLS M27-A)
[4] = tested on: Aspergillus fumigatus 231; assay: as above; conditions: AF
Method: (§1) In vitro antifungal activities of the compounds were evaluated on the collection of fungal strains deposited at the Department of Biological and Medical Sciences, Faculty of Pharmacy, Charles University, Czech Republic. All the isolates were maintained on Sabouraud dextrose agar prior to being tested.
(§2) Minimum inhibitory concentrations (MICs) were determined by the microdilution format of the NCCLS M27-A guidelines. […] RPMI 1640 (Sevapharma, Prague) medium supplemented with L-glutamine and buffered with 0.165 M morpholinepropanesulfonic acid to pH 7.0 was used as the test medium. The wells of the microdilution tray contained 100 μl of the RPMI 1640 medium with 2-fold serial dilutions of the compounds (1000 to 0.24 μmol/l for the new compounds) and 100 μl of inoculum suspension. Fungal inoculum in RPMI 1640 was prepared to give a final concentration of 5×103±0.2 cfu·ml-1. The trays were incubated at 35° C. and MICs were read visually for filamentous fungi and photometrically for yeasts as an optical density (OD) at 540 nm after 24 h and 48 h. The MICs were defined as 80% inhibition of the growth of control. MICs were determined twice and in duplicate. The deviations from the usually obtained were no higher than the nearest concentration value up and down the dilution scale.

[5] = tested on: Enterococcus sp. J 14365/08; assay: Screen against bacteria, MIC/IC80; type: cell-based; conditions: EF
[6] = tested on: Escherichia coli CCM4517; assay: Screen against bacteria, MIC/IC80; type: cell-based; conditions: EC
[7] = tested on: Klebsiella pneumoniae J 14368/08 ESBL-positive; assay: Screen against bacteria, MIC/IC80; type: cell-based; conditions: KP-E
[8] = tested on: Staphylococcus epidermidis H 6966/08; assay: Screen against bacteria, MIC/IC80; type: cell-based; conditions: SE
[9] = tested on: Staphylococcus aureus H 5996/08 Methiciline-resistant; assay: Screen against bacteria, MIC/IC80; type: cell-based; conditions: MRSA
[10] = tested on: Candida albicans ATCC 44859; assay: In vitro antifungal activity, MIC by microdilution (NCCLS M27-A)
Method: as §1, §2

[11] = tested on: Staphylococcus aureus CCM 4516/08; assay: Screen against bacteria, MIC/IC80; type: cell-based; conditions: SA
[12] = tested on: Candida glabrata 20/l; assay: In vitro antifungal activity, MIC by microdilution (NCCLS M27-A); conditions: CG
Method: as §1, §2

[13] = tested on: Candida tropicalis 156; assay: as above; conditions: CT
[14] = tested on: Candida krusei ATCC 6258; assay: as above
Method: as §1, §2

[15] = tested on: Candida albicans ATCC 90028; assay: as above
Method: as §1, §2

[16] = tested on: Absidia corymbifera 272; assay: as above; conditions: AC
Method: as §1, §2

[17] = tested on: Candida lusitaniae 2446/l; assay: as above; conditions: CL
Method: as §1, §2

[18] = tested on: Trichophyton mentagrophytes 445; assay: as above; conditions: TM
[19] = tested on: Candida parapsilosis ATCC 22019; assay: as above; conditions: CP
Method: as §1, §2

Measured: MIC/IC80

COC(=O)[C@@H](OC(=O)C[n+]1ccn(C)c1)c1ccccc1 [KG91, S-3-methyl-1-[1-(methoxycarbonyl)-1-phenylmethoxycarbonylmethyl]imidazolium bromide]
>1000 µM: [1]; 24 h | [1]; 48 h | [2]; 24 h | [2]; 48 h | [3]; CK2, 24 h | [3]; CK2, 48 h | [4]; 24 h | [4]; 48 h | [5]; 24 h | [5]; 48 h | [6]; 24 h | [6]; 48 h | [7]; 24 h | [7]; 48 h | [8]; 24 h | [8]; 48 h | [9]; 24 h | [9]; 48 h | [10]; CA1, 24 h | [10]; CA1, 48 h | [11]; 24 h | [11]; 48 h | [12]; 24 h | [12]; 48 h | [13]; 24 h | [13]; 48 h | [14]; CK1, 24 h | [14]; CK1, 48 h | [15]; CA2, 24 h | [15]; CA2, 48 h | [16]; 24 h | [16]; 48 h | [17]; 24 h | [17]; 48 h | [18]; 72 h | [18]; 120 h | [19]; 24 h | [19]; 48 h

CCCCCOC(=O)[C@@H](C)OC(=O)C[n+]1ccn(C)c1 [KG159, R-3-methyl-1-[1-(pentoxycarbonyl)-1-methylmethoxycarbonylmethyl]imidazolium bromide]
>1000 µM: [1]; 24 h | [1]; 48 h | [2]; 24 h | [2]; 48 h | [3]; CK2, 24 h | [3]; CK2, 48 h | [4]; 24 h | [4]; 48 h | [5]; 24 h | [5]; 48 h | [6]; 24 h | [6]; 48 h | [7]; 24 h | [7]; 48 h | [8]; 24 h | [8]; 48 h | [9]; 24 h | [9]; 48 h | [10]; CA1, 24 h | [10]; CA1, 48 h | [11]; 24 h | [11]; 48 h | [12]; 24 h | [12]; 48 h | [13]; 24 h | [13]; 48 h | [14]; CK1, 24 h | [14]; CK1, 48 h | [15]; CA2, 24 h | [15]; CA2, 48 h | [16]; 24 h | [16]; 48 h | [17]; 24 h | [17]; 48 h | [18]; 72 h | [18]; 120 h | [19]; 24 h | [19]; 48 h

CCOCCOC(=O)C(C)OC(=O)Cn1cc[n+](C)c1.[Br-] (centres unmarked) [KG160, RS-3-methyl-1-[1-(ethoxyethoxycarbonyl)-1-methylmethoxycarbonylmethyl]imidazolium bromide]
>1000 µM: [1]; 24 h | [1]; 48 h | [2]; 24 h | [2]; 48 h | [3]; CK2, 24 h | [3]; CK2, 48 h | [4]; 24 h | [4]; 48 h | [5]; 24 h | [5]; 48 h | [6]; 24 h | [6]; 48 h | [7]; 24 h | [7]; 48 h | [8]; 24 h | [8]; 48 h | [9]; 24 h | [9]; 48 h | [10]; CA1, 24 h | [10]; CA1, 48 h | [11]; 24 h | [11]; 48 h | [12]; 24 h | [12]; 48 h | [13]; 24 h | [13]; 48 h | [14]; CK1, 24 h | [14]; CK1, 48 h | [15]; CA2, 24 h | [15]; CA2, 48 h | [16]; 24 h | [16]; 48 h | [17]; 24 h | [17]; 48 h | [18]; 72 h | [18]; 120 h | [19]; 24 h | [19]; 48 h

CCOCCOC(=O)[C@@H](C)OC(=O)C[n+]1ccn(C)c1 [KG161, R-3-methyl-1-[1-(ethoxyethoxycarbonyl)-1-methylmethoxycarbonylmethyl]imidazolium bromide]
>1000 µM: [1]; 24 h | [1]; 48 h | [2]; 24 h | [2]; 48 h | [3]; CK2, 24 h | [3]; CK2, 48 h | [4]; 24 h | [4]; 48 h | [5]; 24 h | [5]; 48 h | [6]; 24 h | [6]; 48 h | [7]; 24 h | [7]; 48 h | [8]; 24 h | [8]; 48 h | [9]; 24 h | [9]; 48 h | [10]; CA1, 24 h | [10]; CA1, 48 h | [11]; 24 h | [11]; 48 h | [12]; 24 h | [12]; 48 h | [13]; 24 h | [13]; 48 h | [14]; CK1, 24 h | [14]; CK1, 48 h | [15]; CA2, 24 h | [15]; CA2, 48 h | [16]; 24 h | [16]; 48 h | [17]; 24 h | [17]; 48 h | [18]; 72 h | [18]; 120 h | [19]; 24 h | [19]; 48 h
